Experiments:
Arabidopsis protoplasts = assay: H2O2-induced reactive oxygen species in Arabidopsis protoplasts (H2DCF staining); format: cell-based, Arabidopsis thaliana; details: H2O2 for 2 hours, 60 μM compound, H2DCF dye
Protocol: In this example, to examine whether SD-29 can prevent generation of reactive oxygen species (ROS) under stress, the effect of SD-29 on H2O2 treated Arabidopsis protoplasts was evaluated. Protoplasts were treated with H2O2 for 2 hours with and without 60 μM SD-29. An untreated control was also evaluated. The protoplasts were stained with reactive oxygen species visualization dye H2DCF that fluoresces in the presence of ROS and the treated protoplasts were evaluated using fluorescent microscopy.

Arabidopsis plants [1] = assay: drought-induced stress (sorbitol) in Arabidopsis plants; format: in vivo, Arabidopsis thaliana; details: 150 mM sorbitol plus 60 μM compound, about three weeks, room temperature
Protocol: In the examples described herein, the test compounds (e.g., SD-29 or analogs thereof) were dissolved in dimethyl sulfoxide (DMSO) to provide a 20 mM concentration. Micromolar concentrations were then prepared as needed by addition to the water incubation media. Unless stated otherwise, the experimental plants were incubated with the roots immersed in the water containing the compound. The control plants received only DMSO in the same amount as that of the compound. The effect of SD-29 on modulating drought-induced stress was evaluated with Arabidopsis plants for about three weeks at room temperature. Sorbitol was used to imitate drought conditions. All plants received sufficient incubation media to last the seven days. Plant A was treated with DMSO (in a volume equal to the volume of SD-29 used for Plants B and C), plant B was treated with 150 mM sorbitol plus 60 μM SD-29, plant C was treated with 60 μM SD-29, and plant D was treated with 150 mM sorbitol in the incubation medium.

RACK1A = RACK1A (Arabidopsis thaliana, UniProt O24456); assay: in-vitro assay of tyrosine phosphorylation (Y248) based homodimerization of RACK1A; format: biochemical
RACK1A, sequence (O24456 whole entry): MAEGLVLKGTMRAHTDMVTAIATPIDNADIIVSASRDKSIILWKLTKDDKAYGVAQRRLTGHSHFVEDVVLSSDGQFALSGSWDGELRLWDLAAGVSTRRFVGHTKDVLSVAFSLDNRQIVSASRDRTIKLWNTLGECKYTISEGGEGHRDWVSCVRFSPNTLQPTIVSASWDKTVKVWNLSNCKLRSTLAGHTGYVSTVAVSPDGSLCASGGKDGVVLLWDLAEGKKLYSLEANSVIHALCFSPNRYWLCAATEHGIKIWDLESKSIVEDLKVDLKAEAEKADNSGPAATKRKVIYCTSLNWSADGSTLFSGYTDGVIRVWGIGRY
Text: A crystal structure of Arabidopsis thaliana RACK1 protein has been reported. Deducing the crystal structure of the Arabidopsis RACK1A protein highlighted the potential functional residues of the protein. Noteworthy in the structure was the functionally conserved tyrosine phosphorylation residue (Y248) that has been implicated in RACK1A function. Therefore, it was undertaken to identify a chemical inhibitor of Y248 phosphorylation that would serve as a potential “anti-stress” compound in countering environmental stresses in plants. In order to identify small compounds occupying the Y248 pocket, docking simulations with a subset of 30,000 compounds were performed. Based on ranking with an energy cut-off of 25 kcal/mol, 3,011 compounds were then selected. Upon further re-ranking, 46 lead compounds were identified and 11 compounds were screened for their efficacy in an in-vitro assay. […] Those six compounds include SD-29, SD-29-9, SD-29-11, SD-29-22, SD-34, and SD-125.

Arabidopsis plants [2] = assay: salt stress (150 mM salt) in Arabidopsis plants; format: in vivo, Arabidopsis thaliana; details: 100 μM compound plus 150 mM salt, two weeks, 22° C., vs DMSO plus salt
Protocol: In the examples described herein, the test compounds (e.g., SD-29 or analogs thereof) were dissolved in dimethyl sulfoxide (DMSO) to provide a 20 mM concentration. Micromolar concentrations were then prepared as needed by addition to the water incubation media. Unless stated otherwise, the experimental plants were incubated with the roots immersed in the water containing the compound. The control plants received only DMSO in the same amount as that of the compound. In the first experiment, Arabidopsis plants were treated with 150 mM salt for two weeks. One plant in each group was treated with 100 μM SD-29 plus 150 mM salt and the other plant in each group was treated with DMSO plus 150 mM salt. […] The plants were treated with the indicated treatment twice during the experiment.

rice RACK1A = biological target: T1, rice RACK1A (Oryza sativa subsp. japonica, UniProt P49027); assay: western blot with anti-pY248 of rice leaf lysates under salt stress; format: in vivo; details: 60 μM compound and 250 mM NaCl, 75 μg protein per lane
T1 construct: from tissue; host or cells: rice leaves
T1 sequence (P49027 whole entry): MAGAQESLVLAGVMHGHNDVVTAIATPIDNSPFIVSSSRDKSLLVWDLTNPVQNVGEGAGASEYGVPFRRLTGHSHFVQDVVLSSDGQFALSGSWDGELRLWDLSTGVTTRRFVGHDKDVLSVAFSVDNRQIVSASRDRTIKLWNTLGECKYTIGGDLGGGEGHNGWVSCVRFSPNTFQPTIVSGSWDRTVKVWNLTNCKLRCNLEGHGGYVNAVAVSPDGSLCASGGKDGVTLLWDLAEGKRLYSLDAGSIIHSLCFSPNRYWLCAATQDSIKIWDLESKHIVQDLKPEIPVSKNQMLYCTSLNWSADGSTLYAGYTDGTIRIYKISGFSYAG
Protocol: The rice leaves were also analyzed by Western blot. Lysates were prepared from the leaves and western blot analysis was carried out using standard methods. 75 μg protein were loaded per lane. The membrane containing transferred proteins were probed with anti-pY248, which is an antibody raised to specifically detect phosphorylated tyrosine at residue 248 of RACK1A.

MnSOD = assay: native gel assay of Mn-SOD activity in rice during salt stress; format: in vivo; details: salt stress conditions, NaCN in gel activity buffer
Arabidopsis leaves = assay: H2O2 accumulation in Arabidopsis leaves (DAB staining); format: in vivo, Arabidopsis thaliana; details: 5 μM H2O2 and DAB overnight, vs DMSO only
Protocol: Arabidopsis leaves were treated with 5 μM H2O2 and 3,3′-diaminobenzidene (DAB) with and without SD-29 overnight. A control included DMSO only (included in the same volume as SD-29). The brown spots indicate sites of accumulation of H2O2.

RACK1A:GFP = RACK1A:GFP expression in transformed Arabidopsis plants; format: in vivo, Arabidopsis thaliana; details: 60 μM compound with 250 mM salt for 6 hours
Protocol: Arabidopsis plants transformed with a RAC[…]:GFP construct were analyzed to determine the effect of SD-29 on expression of RAC[…]. The experimental plant was treated with 60 μM SD-29 with 250 mM salt for 6 hours. Controls were treated with and without salt. […] It is quite possible that downregulation of RAC[…] expression by SD-29 may be the cellular mechanism that allow the plants to withstand salt stress.

rice detached leaves = assay: salt-induced stress in rice detached leaves; format: in vivo; details: seven days
Protocol: In the examples described herein, the test compounds (e.g., SD-29 or analogs thereof) were dissolved in dimethyl sulfoxide (DMSO) to provide a 20 mM concentration. Micromolar concentrations were then prepared as needed by addition to the water incubation media. Unless stated otherwise, the experimental plants were incubated with the roots immersed in the water containing the compound. The control plants received only DMSO in the same amount as that of the compound. The effect of SD-29 on modulating salt-induced stress was evaluated with rice detached leaves at room temperature (about 24° C.) for seven days in a water incubation medium. All plants received sufficient incubation medium to last the seven days. Plant A (left most) received 250 mM NaCl plus DMSO, Plant B (right of Plant A) received 60 μM SD-29 and 250 mM NaCl, and plant D received 60 μM SD-29 in the incubation medium. The incubation medium of Plant C was untreated. The rice plant leaves were photographed directly after seven days. […] Much of the chlorophyll of plant A (salt treatment alone) was degraded, while SD-29 treated leaves (Leaf B) maintained the chlorophyll level even in the presence of the same amount of salt.

## Nn1c(S)nnc1-c1ccc(F)cc1 [SD-29]
Arabidopsis protoplasts
  accumulation of H2O2-induced reactive oxygen species in protoplasts: prevented accumulation of H2O2-induced reactive oxygen species
Arabidopsis plants [1]
  plant performance under drought-imitating sorbitol: performed much better than the plant treated with sorbitol alone
RACK1A; data not shown
  IC50: 12.5 µM
RACK1A; in-vitro assay
  tyrosine phosphorylation (Y248) based homodimerization of RACK1A proteins: prevent tyrosine phosphorylation (Y248) based homodimerization of RACK1A proteins
Arabidopsis plants [2]
  salt stress induced chlorosis of Arabidopsis plants: effective to allow the Arabidopsis plants to withstand the salt stress induced chlorosis
Rice RACK1A
  rice RACK1A tyrosine (Y248) phosphorylation under salt stress: significantly inhibited rice RACK1A tyrosine phosphorylation
MnSOD
  MnSOD activity in rice: upregulates MnSOD activity
Arabidopsis leaves
  H2O2 accumulation in leaves: prevents H2O2 accumulation in the leaves
RACK1A:GFP
  RACK1A:GFP expression: down regulation of RACK1A:GFP expression
Rice detached leaves; 60 μM compound and 250 mM NaCl, about 24° C.
  salt stress-induced chlorosis of rice leaves: protect the rice leaves from salt stress-induced chlorosis
Rice detached leaves; 60 μM compound without salt, vs untreated Leaf C
  rice leaf appearance with compound alone: showed little difference from control Leaf C

— US11737462B2, “Methods for modulating plant response to environmentally-induced stress” (Howard University, priority 2012, dated 2023)
